Measured values: ChEMBL document CHEMBL5465560, “Selectivity Literature for EUbOPEN Chemogenomic Library” (2024)

How the values were obtained:
[1] = test system: ALK tyrosine kinase receptor (Homo sapiens), Q9UM73 [C1156Y]; test: (§1) Selectivity interaction (KinomeScan (DiscoverX)) EUB0001079a ALK; conditions: at 1 µM
[2] = test system: ALK tyrosine kinase receptor (Homo sapiens), Q9UM73 [L1196M]; test: as §1; conditions: at 1 µM
[3] = target: ALK tyrosine kinase receptor (Homo sapiens, UniProt Q9UM73); test: as §1; conditions: at 1 µM
[4] = target: T1, Ephrin type-B receptor 4 (Homo sapiens) (UniProt P54760); test: Selectivity interaction (Kinase panel (Invitrogen)) EUB0000639a EPHB4; conditions: at 200 nM
T1 sequence (whole entry): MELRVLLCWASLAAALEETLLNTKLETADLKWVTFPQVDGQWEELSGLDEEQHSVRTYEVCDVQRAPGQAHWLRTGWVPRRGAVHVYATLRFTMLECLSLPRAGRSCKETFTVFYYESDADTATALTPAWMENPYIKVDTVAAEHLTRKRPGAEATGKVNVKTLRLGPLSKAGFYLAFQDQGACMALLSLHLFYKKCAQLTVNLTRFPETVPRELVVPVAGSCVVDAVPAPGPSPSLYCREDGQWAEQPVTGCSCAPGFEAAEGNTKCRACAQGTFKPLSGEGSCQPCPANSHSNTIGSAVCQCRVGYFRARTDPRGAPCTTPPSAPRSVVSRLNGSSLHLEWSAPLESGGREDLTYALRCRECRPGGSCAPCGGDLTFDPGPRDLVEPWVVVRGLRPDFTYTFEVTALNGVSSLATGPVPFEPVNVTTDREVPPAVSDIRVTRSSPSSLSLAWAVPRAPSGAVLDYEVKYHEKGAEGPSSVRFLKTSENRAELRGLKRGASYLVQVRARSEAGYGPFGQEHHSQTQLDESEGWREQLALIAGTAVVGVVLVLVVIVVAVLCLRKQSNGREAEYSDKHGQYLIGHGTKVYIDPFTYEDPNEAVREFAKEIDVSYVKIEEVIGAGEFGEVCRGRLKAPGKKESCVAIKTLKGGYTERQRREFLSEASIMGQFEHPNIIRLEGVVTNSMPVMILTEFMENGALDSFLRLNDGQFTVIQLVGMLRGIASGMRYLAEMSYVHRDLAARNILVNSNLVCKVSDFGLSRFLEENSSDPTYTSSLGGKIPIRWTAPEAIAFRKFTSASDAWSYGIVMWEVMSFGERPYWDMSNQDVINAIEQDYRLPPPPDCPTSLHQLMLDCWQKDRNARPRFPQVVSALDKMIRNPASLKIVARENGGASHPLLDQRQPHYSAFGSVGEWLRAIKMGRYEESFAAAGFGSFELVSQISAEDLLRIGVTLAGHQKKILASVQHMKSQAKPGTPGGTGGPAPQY

[5] = target: Cyclin-dependent kinase 18 (Homo sapiens) (UniProt Q07002); test: Selectivity interaction (Ambit KINOMEscan and KiNATiv profiling in Jurkat cells) EUB0000090b CDK18; assay type: cell-based; conditions: at 1 µM
[6] = target: T2, Dual serine/threonine and tyrosine protein kinase (Homo sapiens) (UniProt Q6XUX3); test: Selectivity interaction (Ambit KINOMEscan and KiNATiv profiling in Jurkat cells) EUB0000090b DSTYK; assay type: cell-based; conditions: at 1 µM
T2 sequence (whole entry): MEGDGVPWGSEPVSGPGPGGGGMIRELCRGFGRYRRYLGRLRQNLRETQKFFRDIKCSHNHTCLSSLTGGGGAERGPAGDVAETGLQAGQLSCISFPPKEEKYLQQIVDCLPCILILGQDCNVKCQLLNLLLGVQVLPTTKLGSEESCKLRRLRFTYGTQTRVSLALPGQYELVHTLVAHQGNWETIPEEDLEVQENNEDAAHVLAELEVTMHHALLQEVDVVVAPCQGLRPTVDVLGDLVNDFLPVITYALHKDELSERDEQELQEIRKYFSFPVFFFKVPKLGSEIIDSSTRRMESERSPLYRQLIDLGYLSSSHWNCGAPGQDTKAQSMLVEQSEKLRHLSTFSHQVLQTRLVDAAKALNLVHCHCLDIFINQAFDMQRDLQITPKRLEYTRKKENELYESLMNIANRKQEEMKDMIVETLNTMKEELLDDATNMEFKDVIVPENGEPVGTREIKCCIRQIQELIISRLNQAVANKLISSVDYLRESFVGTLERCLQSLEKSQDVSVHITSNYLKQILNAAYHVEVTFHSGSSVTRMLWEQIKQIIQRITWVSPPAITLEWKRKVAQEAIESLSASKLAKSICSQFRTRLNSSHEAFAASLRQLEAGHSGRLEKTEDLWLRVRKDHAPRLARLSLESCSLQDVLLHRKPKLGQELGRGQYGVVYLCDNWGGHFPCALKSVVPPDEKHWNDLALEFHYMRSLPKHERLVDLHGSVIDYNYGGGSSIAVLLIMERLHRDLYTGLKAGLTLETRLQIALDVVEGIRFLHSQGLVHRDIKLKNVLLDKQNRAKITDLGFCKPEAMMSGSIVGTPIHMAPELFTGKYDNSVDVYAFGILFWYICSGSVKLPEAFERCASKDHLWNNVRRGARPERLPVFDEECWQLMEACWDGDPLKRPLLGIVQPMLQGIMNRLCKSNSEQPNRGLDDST

[7] = target: RAC-beta serine/threonine-protein kinase (Homo sapiens) (UniProt P31751); test: Selectivity interaction (KinomeScan (DiscoverX)) EUB0000045b AKT2
[8] = target: Histone-lysine N-methyltransferase 2C (Homo sapiens) (UniProt Q8NEZ4); test: Selectivity interaction (Methyltransferase screen (radiometric assays, panel of 8 PRMTs, 21 protein lysine methyltransferases, 3 DNA methyltransferases, and one RNA methyltransferase)) EUB0000272b MLL3

Sequence of RAC-beta serine/threonine-protein kinase (Homo sapiens) (P31751 whole entry): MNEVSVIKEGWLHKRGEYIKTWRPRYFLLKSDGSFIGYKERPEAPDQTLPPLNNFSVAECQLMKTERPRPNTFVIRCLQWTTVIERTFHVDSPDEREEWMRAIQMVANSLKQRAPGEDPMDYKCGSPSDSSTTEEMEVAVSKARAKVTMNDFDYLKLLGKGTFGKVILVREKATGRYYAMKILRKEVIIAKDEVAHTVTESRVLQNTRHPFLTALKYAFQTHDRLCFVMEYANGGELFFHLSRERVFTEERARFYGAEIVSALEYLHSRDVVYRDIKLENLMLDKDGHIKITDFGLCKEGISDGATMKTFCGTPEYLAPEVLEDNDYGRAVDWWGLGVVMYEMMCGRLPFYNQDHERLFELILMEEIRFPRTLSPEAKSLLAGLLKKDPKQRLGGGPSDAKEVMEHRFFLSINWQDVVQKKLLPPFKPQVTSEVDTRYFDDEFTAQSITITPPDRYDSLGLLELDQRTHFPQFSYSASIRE
Sequence of ALK tyrosine kinase receptor (Homo sapiens), Q9UM73 [L1196M] (Q9UM73 whole entry L1196M, looked up): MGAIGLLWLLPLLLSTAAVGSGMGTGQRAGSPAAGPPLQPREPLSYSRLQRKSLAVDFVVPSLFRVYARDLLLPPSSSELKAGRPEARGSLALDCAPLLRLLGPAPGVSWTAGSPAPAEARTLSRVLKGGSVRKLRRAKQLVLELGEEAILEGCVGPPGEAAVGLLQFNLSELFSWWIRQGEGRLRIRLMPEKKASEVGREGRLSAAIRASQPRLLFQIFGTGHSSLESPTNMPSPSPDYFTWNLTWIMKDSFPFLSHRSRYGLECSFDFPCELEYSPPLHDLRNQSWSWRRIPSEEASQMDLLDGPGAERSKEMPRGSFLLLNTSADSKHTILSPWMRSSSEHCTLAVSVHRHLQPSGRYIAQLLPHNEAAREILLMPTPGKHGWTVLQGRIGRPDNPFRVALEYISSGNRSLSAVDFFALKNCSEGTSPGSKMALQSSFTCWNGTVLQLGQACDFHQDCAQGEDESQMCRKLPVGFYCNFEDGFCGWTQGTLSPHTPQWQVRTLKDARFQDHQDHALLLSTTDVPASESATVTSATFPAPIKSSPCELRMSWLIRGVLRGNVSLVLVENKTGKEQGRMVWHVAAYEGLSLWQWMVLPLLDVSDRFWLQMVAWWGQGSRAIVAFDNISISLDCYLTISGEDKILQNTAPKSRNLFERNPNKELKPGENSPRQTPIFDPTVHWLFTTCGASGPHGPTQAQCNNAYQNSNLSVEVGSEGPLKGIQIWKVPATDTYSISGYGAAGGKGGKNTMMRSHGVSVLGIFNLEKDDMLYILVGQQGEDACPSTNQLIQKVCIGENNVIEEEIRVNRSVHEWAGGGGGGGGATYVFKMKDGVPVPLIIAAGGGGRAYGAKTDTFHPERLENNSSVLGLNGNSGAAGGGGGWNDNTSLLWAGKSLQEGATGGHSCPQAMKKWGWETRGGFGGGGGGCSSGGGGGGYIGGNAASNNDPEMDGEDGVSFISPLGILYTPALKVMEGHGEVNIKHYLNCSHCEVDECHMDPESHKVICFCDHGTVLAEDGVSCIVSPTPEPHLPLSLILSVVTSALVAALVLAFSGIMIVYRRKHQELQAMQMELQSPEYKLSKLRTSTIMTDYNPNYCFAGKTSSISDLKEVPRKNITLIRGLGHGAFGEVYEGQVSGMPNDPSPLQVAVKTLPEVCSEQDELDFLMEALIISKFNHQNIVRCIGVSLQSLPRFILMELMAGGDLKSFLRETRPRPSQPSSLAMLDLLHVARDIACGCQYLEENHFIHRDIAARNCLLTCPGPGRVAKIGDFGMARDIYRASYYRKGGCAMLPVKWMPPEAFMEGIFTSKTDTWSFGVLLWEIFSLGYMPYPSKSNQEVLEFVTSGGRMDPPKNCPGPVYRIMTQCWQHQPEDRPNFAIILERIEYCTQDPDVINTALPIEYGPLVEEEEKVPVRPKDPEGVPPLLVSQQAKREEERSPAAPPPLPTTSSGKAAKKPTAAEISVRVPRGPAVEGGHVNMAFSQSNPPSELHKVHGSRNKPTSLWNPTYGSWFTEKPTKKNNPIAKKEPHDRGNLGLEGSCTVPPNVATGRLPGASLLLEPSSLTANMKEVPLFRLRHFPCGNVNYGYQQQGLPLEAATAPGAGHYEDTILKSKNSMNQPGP
Sequence of ALK tyrosine kinase receptor (Q9UM73 19-1620 limits assumed): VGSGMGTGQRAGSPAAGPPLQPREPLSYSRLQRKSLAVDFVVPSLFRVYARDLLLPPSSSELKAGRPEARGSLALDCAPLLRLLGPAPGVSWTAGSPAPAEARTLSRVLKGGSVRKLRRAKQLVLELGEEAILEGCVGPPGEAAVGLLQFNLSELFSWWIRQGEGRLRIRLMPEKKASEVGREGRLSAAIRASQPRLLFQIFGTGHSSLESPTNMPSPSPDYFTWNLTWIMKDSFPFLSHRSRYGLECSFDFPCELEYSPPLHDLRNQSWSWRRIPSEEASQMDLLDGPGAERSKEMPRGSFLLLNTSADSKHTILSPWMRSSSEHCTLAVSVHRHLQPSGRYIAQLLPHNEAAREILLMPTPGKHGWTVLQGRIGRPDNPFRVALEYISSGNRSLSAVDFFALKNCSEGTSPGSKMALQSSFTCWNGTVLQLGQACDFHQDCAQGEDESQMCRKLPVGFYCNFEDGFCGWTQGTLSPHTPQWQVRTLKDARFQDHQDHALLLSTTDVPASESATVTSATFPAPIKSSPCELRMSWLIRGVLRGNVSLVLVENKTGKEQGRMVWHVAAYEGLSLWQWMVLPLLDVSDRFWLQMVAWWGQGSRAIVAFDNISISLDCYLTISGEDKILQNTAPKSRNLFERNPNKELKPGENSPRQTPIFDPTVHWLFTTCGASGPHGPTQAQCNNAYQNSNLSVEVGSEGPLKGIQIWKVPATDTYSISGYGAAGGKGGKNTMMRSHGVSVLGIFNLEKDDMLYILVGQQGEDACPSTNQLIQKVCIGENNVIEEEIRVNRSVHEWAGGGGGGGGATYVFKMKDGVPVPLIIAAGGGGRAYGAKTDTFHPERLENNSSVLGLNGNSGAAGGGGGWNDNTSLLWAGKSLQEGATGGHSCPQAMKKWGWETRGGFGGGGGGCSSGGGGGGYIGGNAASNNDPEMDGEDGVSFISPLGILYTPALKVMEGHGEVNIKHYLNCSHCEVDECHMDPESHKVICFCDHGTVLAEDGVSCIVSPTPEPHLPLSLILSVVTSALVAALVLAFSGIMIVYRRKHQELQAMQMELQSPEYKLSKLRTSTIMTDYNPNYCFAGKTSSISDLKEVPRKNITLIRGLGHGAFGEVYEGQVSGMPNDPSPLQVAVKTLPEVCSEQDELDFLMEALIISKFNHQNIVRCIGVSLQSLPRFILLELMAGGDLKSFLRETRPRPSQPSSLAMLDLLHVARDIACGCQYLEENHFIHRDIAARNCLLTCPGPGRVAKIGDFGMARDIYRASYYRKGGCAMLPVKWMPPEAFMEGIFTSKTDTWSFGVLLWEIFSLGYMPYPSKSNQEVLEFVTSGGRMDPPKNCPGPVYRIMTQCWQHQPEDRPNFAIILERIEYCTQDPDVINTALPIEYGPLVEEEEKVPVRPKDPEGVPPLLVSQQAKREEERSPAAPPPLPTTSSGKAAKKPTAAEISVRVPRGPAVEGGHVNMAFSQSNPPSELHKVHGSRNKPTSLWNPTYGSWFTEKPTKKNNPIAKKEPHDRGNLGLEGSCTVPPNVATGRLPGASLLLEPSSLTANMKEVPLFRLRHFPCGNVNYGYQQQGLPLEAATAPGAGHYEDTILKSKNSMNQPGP
Sequence of Cyclin-dependent kinase 18 (Homo sapiens) (Q07002 whole entry): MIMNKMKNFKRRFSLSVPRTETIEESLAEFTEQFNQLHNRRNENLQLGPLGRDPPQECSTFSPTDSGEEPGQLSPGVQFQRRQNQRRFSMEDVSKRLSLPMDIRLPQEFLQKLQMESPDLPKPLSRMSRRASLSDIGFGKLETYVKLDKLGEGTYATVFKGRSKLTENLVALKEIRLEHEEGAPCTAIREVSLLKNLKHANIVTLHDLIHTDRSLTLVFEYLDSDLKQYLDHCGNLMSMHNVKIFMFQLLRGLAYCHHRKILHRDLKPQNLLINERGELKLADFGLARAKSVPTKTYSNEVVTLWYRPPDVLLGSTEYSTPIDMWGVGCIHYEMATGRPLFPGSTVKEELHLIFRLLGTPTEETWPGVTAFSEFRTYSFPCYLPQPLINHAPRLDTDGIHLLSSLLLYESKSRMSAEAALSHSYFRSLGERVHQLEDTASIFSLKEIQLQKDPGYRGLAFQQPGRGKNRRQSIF
Sequence of ALK tyrosine kinase receptor (Homo sapiens), Q9UM73 [C1156Y] (Q9UM73 whole entry C1156Y, looked up): as the sequence (Q9UM73 whole entry L1196M, looked up) above, with C1156Y, M1196L counted along it

## Nc1cnc(N2CCc3cc(S(=O)(=O)Nc4c(F)cc(Cl)cc4F)cc(N4CCCC4=O)c32)nc1 [TP-020n]
[1]
  % of control: 100%
[2]
  % of control: 81%
[3]
  % of control: 100%

## CC[C@@H]1[C@H](F)C(=O)N[C@@H]1COc1nccc2cc(C(N)=O)c(OC)cc12 [ZIMLOVISERTIB]
[4]
  % of inhibition: 4.33%

## CN(C)C/C=C/C(=O)Nc1ccc(C(=O)N2CCCC(Nc3ncc(Cl)c(-c4c[nH]c5ccccc45)n3)C2)cc1 (stereo not given)
[5]
  % of control: 59%
[6]
  % of control: 100%

## C=CC(=O)Nc1cc(-n2c(=O)ccc3cnc4ccc(-c5ccc(NS(C)(=O)=O)cc5)cc4c32)ccc1C
[7]; at 1 µM
  % of control: 100%
[7]; at 10 µM
  % of control: 100%

## Cc1cc(C)cc([C@H]2c3cc(C)ccc3NC(=O)CN2C(=O)c2ccc(Br)s2)c1
[8]; at 1 µM
  % of activity: 101%
[8]; at 10 µM
  % of activity: 92%
